How the values were obtained:
[1] = Inhibition of Plasmodium falciparum HGXPRT using Prib-PP as substrate by Hanes-plot based method
[2] = molecular target: T1, Hypoxanthine-guanine phosphoribosyltransferase (Homo sapiens, UniProt P00492)
T1 sequence (P00492 whole entry): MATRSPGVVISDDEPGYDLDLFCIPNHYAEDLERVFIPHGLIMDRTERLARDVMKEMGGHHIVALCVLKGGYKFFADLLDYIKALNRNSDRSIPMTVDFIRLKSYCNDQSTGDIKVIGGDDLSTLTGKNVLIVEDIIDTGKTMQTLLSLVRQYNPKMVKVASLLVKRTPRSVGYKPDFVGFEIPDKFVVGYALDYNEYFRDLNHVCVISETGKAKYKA
Description: Inhibition of human HGPRT using Prib-PP as substrate by Hanes-plot based method

[3] = test system: Plasmodium falciparum; experiment: Antimalarial activity against Plasmodium falciparum FCQ-27 isolate infected in erythrocytes assessed as reduction in [G-3H]Hypoxanthine incorporation incubated for 24 hrs followed by addition of [G-3H]Hypoxanthine and measured after 18 to 20 hrs by scintillation counting method; format: functional
[4] = test system: Plasmodium falciparum; experiment: Antimalarial activity against synchronized Plasmodium falciparum K1 ring form infected in human erythrocytes assessed as reduction in parasite growth after 72 hrs by Hoechst 33258 staining based fluorescence assay; format: functional, organism-based; conditions: K1, 72 h
[5] = Inhibition of Plasmodium vivax HGPRT using Prib-PP as substrate by Hanes-plot based method
[6] = Inhibition of Plasmodium falciparum N-terminal His6-tagged HGXPRT using Prib-PP as substrate by Hanes-plot based method
[7] = molecular target: T1, Hypoxanthine-guanine phosphoribosyltransferase; experiment: Inhibition of human N-terminal His6-tagged HGPRT using Prib-PP as substrate by Hanes-plot based method
[8] = test system: Plasmodium falciparum; experiment: Antimalarial activity against Plasmodium falciparum; format: functional; conditions: read-out: ID50 (the source's name)
[9] = test system: Plasmodium falciparum; experiment: Antimalarial activity against Plasmodium falciparum D6 assessed as reduction in parasite growth preincubated for 48 hrs followed by addition of [3H]Hypoxanthine and measured after 48 hrs by [3H]Hypoxanthine incorporation assay; format: functional, organism-based
[10] = test system: Plasmodium falciparum; experiment: Antimalarial activity against chloroquine/ pyrimethamine-resitant Plasmodium falciparum W2 assessed as reduction in parasite growth preincubated for 48 hrs followed by addition of [3H]Hypoxanthine and measured after 48 hrs by [3H]Hypoxanthine incorporation assay; format: functional, organism-based

O=c1[nH]c(=O)c2ncn(C[C@H](CO)n3cc(P(=O)(O)O)nn3)c2[nH]1
Ki [1]: 2 µM | Ki [2]: > 500 µM

Nc1nc(Cl)nc2c1ncn2[C@@H]1O[C@H](CO)[C@@H](O)[C@H]1O
IC37 [3]: 11 µM

Nc1nc(N)c2ncn(C[C@H](CO)OCP(=O)(O)O)c2n1
IC50 [4]: 15 µM

Nc1nc(N)c2ncn(C[C@@H](CO)OCP(=O)(O)O)c2n1
IC50 [4]: 2.1 µM

Nc1ncnc2c1ncn2C[C@H](CO)OCP(=O)(O)O
IC50 [4]: 6 µM

Nc1nc2c(ncn2[C@@H]2CN(C(=O)CCP(=O)(O)O)C[C@H]2OC[C@@H](O)P(=O)(O)O)c(=O)[nH]1
Ki [5]: 0.008 µM | Ki [1]: 0.007 µM

Nc1nc2c(ncn2C[C@@H](CO)n2cc(P(=O)(O)O)nn2)c(=O)[nH]1
Ki [5]: 2 µM | Ki [1]: 2 µM | Ki [2]: 0.4 µM

Nc1ncnc2c1ccn2[C@@H]1O[C@H](CO)[C@@H](O)[C@H]1O [TUBERCIDIN]
IC37 [3]: 0.7 µM

Nc1nc2c(nc(Br)n2C[C@@H](CO)OCCP(=O)(O)O)c(=O)[nH]1
Ki [6]: > 30 µM | Ki [7]: 13 µM

Nc1ncnc2c1ncn2[C@@H]1C[C@@H](OP(=O)(O)OC[C@H]2O[C@@H](n3cc(F)c(=O)[nH]c3=O)C[C@@H]2O)[C@H](CO)O1
IC50 [8]: 5 µM

CCOC(=O)[C@H](Cc1ccccc1)NP(=O)(CCO[C@H](CO)Cn1cnc2c(=O)[nH]c(N)nc21)N[C@@H](Cc1ccccc1)C(=O)OCC
IC50 [9]: 22 to 70 µM | IC50 [10]: 22 to 70 µM

CCOC(=O)[C@H](Cc1ccccc1)NP(N)(=O)CCO[C@H](CO)Cn1cnc2c(=O)[nH]cnc21 (some centres undefined)
IC50 [9]: > 250 µM | IC50 [10]: > 250 µM

Nc1nccc2c1ncn2C[C@H](CO)OCP(=O)(O)O
IC50 [4]: 100 µM

CNc1ncnc2c1ncn2[C@H]1C[C@H](O)[C@@H](CO)O1
IC37 [3]: 10 µM

CC(C)(C)C(=O)OCOP(=O)(COCCn1cnc2c(N)ncnc21)OCOC(=O)C(C)(C)C [ADEFOVIR DIPIVOXIL]
IC50 [4]: 37.3 µM

Nc1ncnc2c1ncn2C[C@@H](CO)OCP(=O)(O)O
IC50 [4]: 0.18 µM

COC(=O)[C@H](Cn1cnc2c(=O)[nH]cnc21)OCCP(=O)(O)O
Ki [6]: 1 µM | Ki [7]: 6 µM

Nc1ncnc2c1ncn2CCOCP(=O)(O)O [ADEFOVIR]
IC50 [4]: > 250 µM

Nc1nc2c(ncn2C[C@H](CO)n2cc(P(=O)(O)O)nn2)c(=O)[nH]1
Ki [5]: 1 to 6 µM | Ki [1]: 1 to 6 µM | Ki [2]: 0.1 µM

NC(=O)c1cn([C@@H]2O[C@H](CO)[C@@H](O)[C@H]2O)c2ncnc(N)c12 [SANGIVAMYCIN]
IC37 [3]: 0.3 µM | IC50 [8]: 25 µM

Nc1nc2c(ncn2[C@H]2CCN(C(=O)CP(=O)(O)O)C2)c(=O)[nH]1
Ki [5]: 2600 µM | Ki [1]: 400 µM | Ki [2]: 73000 µM

Nc1nccc2c1ncn2C[C@@H](CO)OCP(=O)(O)O
IC50 [4]: 0.29 µM

O=C(CCP(=O)(O)O)N1C[C@@H](n2cnc3c(O)ncnc32)[C@H](OC[C@@H](O)P(=O)(O)O)C1
Ki [5]: 0.006 µM | Ki [1]: 0.002 µM

CCOC(=O)[C@H](Cc1ccccc1)NP(=O)(CCO[C@@H](Cn1cnc2c(=O)[nH]c(N)nc21)C(=O)OC)N[C@@H](Cc1ccccc1)C(=O)OCC
IC50 [9]: 50 µM | IC50 [10]: 50 µM

O=c1[nH]cnc2c1ncn2C[C@H](CO)n1cc(P(=O)(O)O)nn1
Ki [5]: > 100 µM | Ki [1]: 3 µM | Ki [2]: 8 µM

CCOC(=O)[C@H](Cc1ccccc1)NP(N)(=O)CCO[C@H](CO)Cn1cnc2c(=O)[nH]c(N)nc21 (some centres undefined)
IC50 [9]: > 250 µM | IC50 [10]: > 250 µM

CCOC(=O)[C@H](Cc1ccccc1)NP(=O)(CCO[C@@H](Cn1cnc2c(=O)[nH]cnc21)C(=O)OC)N[C@@H](Cc1ccccc1)C(=O)OCC
IC50 [9]: 50 µM | IC50 [10]: 50 µM

Nc1ncnc2c1ncn2[C@H]1O[C@@H](CO)[C@H](OP(=O)(O)OC[C@H]2O[C@@H](n3cc(F)c(=O)[nH]c3=O)C[C@@H]2O)[C@@H]1O
IC50 [8]: 4 µM

Nc1nc2c(ncn2C[C@@H](CO)OCCP(=O)(O)O)c(=O)[nH]1
Ki [6]: 0.1 µM | Ki [7]: 0.6 µM

Reference: ChEMBL document CHEMBL4376805, “Plasmodium Purine Metabolism and Its Inhibition by Nucleoside and Nucleotide Analogues” (J Med Chem, 2019)
